Data published in patent publication EP4568957B1, “SUBSTITUTED PHENYL OXOOXAZOLYL PIPERIDINE DIONE COMPOUNDS” (Bristol-Myers Squibb Company, priority 2023, dated 2025).

Columns and labels:
Assay type in all cases: cell-based
IKZF4 Eos = target: T1, IKZF4 Eos (Homo sapiens, UniProt Q96SW2+Q9H2S9); test: Human Regulatory T Cell Reprogramming Assay; conditions: for DC50: 12-13 days, vs DMSO alone; for IKZF4*** Eos max % or deg. observed: Table E summary, Human Regulatory T Cell Reprogramming Assay (C-1)
T1 construct: endogenous in cells; host or cells: primary human CD4+CD127lowCD25+ Treg cells from healthy leukopaks
T1 sequence (Q9H2S9 whole entry): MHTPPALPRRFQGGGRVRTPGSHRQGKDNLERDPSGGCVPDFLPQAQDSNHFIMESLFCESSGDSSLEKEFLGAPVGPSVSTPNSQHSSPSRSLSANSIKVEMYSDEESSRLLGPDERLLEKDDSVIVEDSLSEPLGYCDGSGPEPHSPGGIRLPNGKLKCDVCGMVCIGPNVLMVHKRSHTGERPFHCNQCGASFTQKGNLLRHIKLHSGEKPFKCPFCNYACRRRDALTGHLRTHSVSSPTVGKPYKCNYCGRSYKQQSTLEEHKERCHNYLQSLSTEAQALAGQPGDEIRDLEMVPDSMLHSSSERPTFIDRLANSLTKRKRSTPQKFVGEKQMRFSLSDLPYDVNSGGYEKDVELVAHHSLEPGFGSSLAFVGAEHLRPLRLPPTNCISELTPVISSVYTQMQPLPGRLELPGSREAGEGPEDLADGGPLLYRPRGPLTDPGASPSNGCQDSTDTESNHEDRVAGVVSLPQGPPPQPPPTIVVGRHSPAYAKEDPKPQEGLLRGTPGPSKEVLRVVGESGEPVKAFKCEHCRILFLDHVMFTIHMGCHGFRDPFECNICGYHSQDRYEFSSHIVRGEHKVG
T1 sequence (Q96SW2 whole entry): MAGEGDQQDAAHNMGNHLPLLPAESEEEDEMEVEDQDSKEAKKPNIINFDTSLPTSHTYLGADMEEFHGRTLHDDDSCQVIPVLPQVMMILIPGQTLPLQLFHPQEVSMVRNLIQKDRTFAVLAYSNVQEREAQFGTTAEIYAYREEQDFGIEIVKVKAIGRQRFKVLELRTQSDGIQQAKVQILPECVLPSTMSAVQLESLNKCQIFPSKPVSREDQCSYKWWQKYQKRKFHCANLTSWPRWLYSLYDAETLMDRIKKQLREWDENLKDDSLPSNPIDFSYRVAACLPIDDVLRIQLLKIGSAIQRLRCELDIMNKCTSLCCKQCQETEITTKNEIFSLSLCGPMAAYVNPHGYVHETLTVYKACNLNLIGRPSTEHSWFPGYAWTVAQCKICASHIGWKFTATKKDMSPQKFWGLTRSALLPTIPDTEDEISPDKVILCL
T1 sequence (Q16531 whole entry partner): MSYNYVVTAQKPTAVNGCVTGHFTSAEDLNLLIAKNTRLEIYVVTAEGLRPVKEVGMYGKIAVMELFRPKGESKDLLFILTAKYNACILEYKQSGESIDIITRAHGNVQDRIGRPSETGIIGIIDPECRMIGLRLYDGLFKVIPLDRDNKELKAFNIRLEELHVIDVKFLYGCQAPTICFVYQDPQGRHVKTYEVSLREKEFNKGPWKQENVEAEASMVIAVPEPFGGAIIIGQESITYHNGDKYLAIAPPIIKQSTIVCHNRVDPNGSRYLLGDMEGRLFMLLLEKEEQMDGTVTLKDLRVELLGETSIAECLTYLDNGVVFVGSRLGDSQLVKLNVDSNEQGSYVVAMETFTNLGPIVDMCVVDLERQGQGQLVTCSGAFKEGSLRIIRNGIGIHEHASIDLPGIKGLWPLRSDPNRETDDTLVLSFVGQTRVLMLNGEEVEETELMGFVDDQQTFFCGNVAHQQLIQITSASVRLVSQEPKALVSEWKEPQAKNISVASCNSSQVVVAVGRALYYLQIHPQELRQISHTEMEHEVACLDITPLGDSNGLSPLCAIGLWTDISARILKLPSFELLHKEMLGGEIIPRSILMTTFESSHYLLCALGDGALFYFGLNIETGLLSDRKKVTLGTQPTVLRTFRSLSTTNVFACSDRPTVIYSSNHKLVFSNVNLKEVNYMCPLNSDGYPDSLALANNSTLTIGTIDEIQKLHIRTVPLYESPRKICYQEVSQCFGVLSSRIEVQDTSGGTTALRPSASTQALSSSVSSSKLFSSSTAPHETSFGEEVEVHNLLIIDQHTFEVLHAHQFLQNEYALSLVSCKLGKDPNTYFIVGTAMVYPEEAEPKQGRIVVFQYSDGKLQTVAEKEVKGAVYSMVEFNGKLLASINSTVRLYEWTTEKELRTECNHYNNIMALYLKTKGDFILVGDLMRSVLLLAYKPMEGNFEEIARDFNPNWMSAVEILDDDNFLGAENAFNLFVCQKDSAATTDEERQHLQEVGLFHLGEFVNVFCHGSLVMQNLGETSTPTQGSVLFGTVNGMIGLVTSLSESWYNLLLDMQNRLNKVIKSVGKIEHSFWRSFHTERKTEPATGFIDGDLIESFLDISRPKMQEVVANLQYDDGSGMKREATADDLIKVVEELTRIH
Procedure: Human CD4^+ T cells were isolated from fresh healthy leukopaks (Stemcell Technologies) using the RosetteSep Human CD4^+ T cell enrichment cocktail (Stemcell Technologies) and Ficoll density gradient centrifugation. Leukopaks were diluted with an equal volume of phosphate-buffered saline (PBS [Gibco]) supplemented with 2% fetal bovine serum (FBS, VWR Lifescience) and incubated with RosetteSep Human CD4^+ T cell enrichment cocktail for 20 minutes before layering on Ficoll-Paque Plus solution (GE Health Care). The cell-rich interface layer was harvested and washed twice with PBS supplemented with 2% FBS. Regulatory T cells were then isolated manually using the EasySep Human CD4^+CD127^lowCD25^+ Regulatory T cell isolation kit (Stemcell Technologies) according to the manufacturer's instructions. Cells were rested overnight in Roswell Park Memorial Institute (RPMI) 1640 media (Gibco) supplemented with 10% FBS, Pen/Strep (Gibco), MEM-NEAA (Gibco), and sodium pyruvate (Gibco) in a humidified incubator (37 °C, 5% CO2). Cells were then stained for CD4 (clone: RPA-T4, Biolegend), CD25 (clone: 2A3, BD Biosciences), and CD127 (clone: hIL-7R-M21, BD Biosciences). CD4^+CD127^lowCD25^+ cells were sorted on a BD FACS Aria Fusion sorter to a purity of 95%) or greater. Sorted cells were immediately used or cryopreserved for downstream assays.
Fresh or cryopreserved FACS-sorted CD4^+CD127^lowCD25^+ Treg cells were cultured at 25,000-50,000 cells/well of 96-well round bottom plates in RPMI 1640 media (Gibco) supplemented with 10% FBS, Pen/Strep (Gibco), MEM-NEAA (Gibco), and sodium pyruvate (Gibco). Cells were stimulated with Treg Xpander beads (Thermo Fisher) at cells-to-beads ratio of 1:4 in the presence of 500 U/mL recombinant human IL-2 (Proleukin). Compounds were added at titrated doses and cells were incubated at 37 °C, 5% CO2 for 12-13 days. Recombinant human IL-2 and compound were replenished every 2-3 days during the entire culture duration. On day 12 or 13, cells were restimulated with phorbol 12-myristate 13-acetate (PMA,) and ionomycin in the presence of the protein transport inhibitors brefeldin A and monensin (eBioscience Cell Stimulation Cocktail plus protein transport inhibitors, 500x, Catalog number 00-4975-93) before proceeding with flow cytometry staining and analysis.
For flow cytometry staining, cells were washed twice with flow cytometry staining buffer (Thermo Fisher) and incubated in Human Tru-stain Fc block (Biolegend) for 10 minutes before adding eFluor780 viability dye (Thermo Fisher) and surface marker antibody cocktail for 30 minutes at 4 °C. Cells were then fixed and permeabilized by incubation with FoxP3 transcription factor staining buffer (Thermo Fisher) for 30 minutes at 4 °C as per the kit manufacturer's instructions. Cells were washed twice with the Perm/Wash buffer supplied in the kit as per the manufacturer's instructions and incubated overnight at 4 °C with an intracellular antibody cocktail comprised of antibodies specific for the transcription factors shown in Table C. Cells were washed twice with Perm/Wash buffer and resuspended in flow cytometry staining buffer (Thermo Fisher) prior to acquisition. Sample acquisition and analysis was performed using a BD LSRFortessa (BD Biosciences) flow cytometer. Single stain controls for each fluorochrome were prepared using UltraComp eBead Compensation Beads (Thermo Fisher). Data were analyzed using FlowJo version 10 and GraphPad Prism Software. TABLE C

IKZF3 Aiolos = IKZF3 Aiolos (Homo sapiens, UniProt Q96SW2+Q9UKT9); test: Human CD8+ T Cell Reprogramming Assay (method headed Human CD8+ T Cell Degradation Assay); set-up: Foxp3-BV421, HELIOS-PE-Cy7, EOS-PE, IKAROS-PECF594, AIOLOS-AF647; endogenous in cells; host or cells: human PBMC from healthy donors (CD8+ T cells gated by flow cytometry); conditions: for IKZF3* Aiolos max % deg. observed: Table E summary, Human CD8+ T Cell Reprogramming Assay (D-1); for DC50 / IKZF3 Aiolos Maximum Observed Degradation: human PBMC, CD8+ T cells, 24 hours; for DC50: vs DMSO alone
Sequence of IKZF3 Aiolos (Q9UKT9 whole entry): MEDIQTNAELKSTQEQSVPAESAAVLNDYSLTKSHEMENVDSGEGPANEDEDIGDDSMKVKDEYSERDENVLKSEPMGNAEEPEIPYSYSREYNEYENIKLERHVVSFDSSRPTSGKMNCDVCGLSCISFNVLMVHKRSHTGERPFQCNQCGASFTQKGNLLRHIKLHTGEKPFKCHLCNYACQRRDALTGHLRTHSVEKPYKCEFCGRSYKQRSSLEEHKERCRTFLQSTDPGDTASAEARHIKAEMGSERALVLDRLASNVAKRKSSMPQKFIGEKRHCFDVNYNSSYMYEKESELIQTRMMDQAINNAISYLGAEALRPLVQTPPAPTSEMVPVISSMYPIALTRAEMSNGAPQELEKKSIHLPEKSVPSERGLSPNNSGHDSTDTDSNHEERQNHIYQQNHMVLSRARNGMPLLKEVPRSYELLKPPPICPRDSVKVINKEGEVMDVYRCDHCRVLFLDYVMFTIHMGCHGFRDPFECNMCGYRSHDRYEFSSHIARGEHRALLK
Sequence of IKZF3 Aiolos (Q96SW2 whole entry): as the sequence (Q96SW2 whole entry) above
Sequence of IKZF3 Aiolos (Q16531 whole entry partner): as the sequence (Q16531 whole entry partner) above
Procedure: (§1) Cryopreserved healthy donor human peripheral blood mononuclear cells (PBMC) from healthy donors were thawed and seeded at 500,000 cells/well of 96-well round bottom plates in RPMI 1640 media (Gibco) supplemented with 10% FBS, Pen/Strep (Gibco), MEM-NEAA (Gibco), and sodium pyruvate (Gibco). Cells were treated with titrated doses of compound for 24 hours at 37 °C, 5% CO2, before analyzing by flow cytometry.
(§2) For flow cytometry staining, cells were washed twice with flow cytometry staining buffer (Thermo Fisher) and incubated in Human Tru-stain Fc block (Biolegend) for 10 minutes before adding eFluor780 viability dye (Thermo Fisher) and surface marker antibody cocktail containing LD-eFluor780, CD3-BUV-395, CD4-BUV805, CD8-FITC, and CD25-BV605 for 30 minutes at 4 °C, Cells were then fixed and permeabilized by incubation with permeabilization buffer (eBioscience FoxP3 buffer set 00-5523-00) for 30 minutes at 4 °C as per the kit manufacturer's instructions. Cells were washed twice with the Perm/Wash buffer supplied in the kit as per the manufacturer's instructions and incubated overnight at 4 °C with an intracellular antibody cocktail comprised of antibodies specific for the transcription factors (i.e. , Foxp3-BV421, HELIOS-PE-Cy7, EOS-PE, IKAROS-PECF594, AIOLOS-AF647). Cells were washed twice with Perm/Wash buffer and resuspended in flow cytometry staining buffer (Thermo Fisher) prior to acquisition. Sample acquisition and analysis was performed using a BD LSRFortessa (BD Biosciences) flow cytometer. Single-stain controls for each fluorochrome were prepared using UltraComp eBead Compensation Beads (Thermo Fisher). Data were analyzed using FlowJo version 10 and GraphPad Prism Software. TABLE D-1

IKZF1 Ikaros = IKZF1 Ikaros (Homo sapiens, UniProt Q13422+Q96SW2); test: as above; set-up: Foxp3-BV421, HELIOS-PE-Cy7, EOS-PE, IKAROS-PECF594, AIOLOS-AF647; endogenous in cells; host or cells: human PBMC from healthy donors (CD8+ T cells gated by flow cytometry); conditions: for IKZF1* Ikaros max % deg. observed: Table E summary, Human CD8+ T Cell Reprogramming Assay (D-1); for DC50 / IKZF1 Ikaros Maximum Observed Degradation: human PBMC, CD8+ T cells, 24 hours; for DC50: vs DMSO alone
Sequence of IKZF1 Ikaros (Q13422 whole entry): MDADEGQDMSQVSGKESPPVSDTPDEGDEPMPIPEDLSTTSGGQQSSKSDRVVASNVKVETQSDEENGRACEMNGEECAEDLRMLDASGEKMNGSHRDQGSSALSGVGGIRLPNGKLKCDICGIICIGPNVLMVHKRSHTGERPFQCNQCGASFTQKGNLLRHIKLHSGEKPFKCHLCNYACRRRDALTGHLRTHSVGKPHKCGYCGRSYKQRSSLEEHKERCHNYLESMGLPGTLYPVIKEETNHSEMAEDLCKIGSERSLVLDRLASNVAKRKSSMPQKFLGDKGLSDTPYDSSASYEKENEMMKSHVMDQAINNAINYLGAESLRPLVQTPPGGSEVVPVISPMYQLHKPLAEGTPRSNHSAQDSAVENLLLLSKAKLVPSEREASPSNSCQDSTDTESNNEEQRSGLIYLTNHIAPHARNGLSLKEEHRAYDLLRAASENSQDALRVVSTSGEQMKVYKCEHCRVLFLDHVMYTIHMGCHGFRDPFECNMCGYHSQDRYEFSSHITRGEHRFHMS
Sequence of IKZF1 Ikaros (Q96SW2 whole entry): as the sequence (Q96SW2 whole entry) above
Sequence of IKZF1 Ikaros (Q16531 whole entry partner): as the sequence (Q16531 whole entry partner) above
Procedure: as §1, §2

| Structure (SMILES) | DC50 (IKZF4 Eos; CD4+CD127lowCD25+ Treg cells) [nM] | IKZF4*** Eos max % or deg. observed (IKZF4 Eos) [%] | IKZF3* Aiolos max % deg. observed (IKZF3 Aiolos) [%] | DC50 (IKZF3 Aiolos) [nM] | IKZF1* Ikaros max % deg. observed (IKZF1 Ikaros) [%] | DC50 (IKZF1 Ikaros) [nM] | IKZF3 Aiolos Maximum Observed Degradation (IKZF3 Aiolos) [%] | IKZF1 Ikaros Maximum Observed Degradation (IKZF1 Ikaros) [%] | IKZF4 Eos max % deg. observed (IKZF4 Eos; CD4+CD127lowCD25+ Treg cells, 12-13 days with compound) [%] |
| --- | --- | --- | --- | --- | --- | --- | --- | --- | --- |
| CO[C@H]1C[C@H](Oc2c(C)cc(-c3ccc(-c4cn(C5CCC(=O)NC5=O)c(=O)o4)c(F)c3)nc2N)C1 (relative stereo) [Example 2, trans 3-(5-(4-(6-amino-5-(3-methoxycyclobutoxy)-4-methylpyridin-2-yl)-2-fluorophenyl)-2-oxooxazol-3(2H)-yl)piperidine-2,6-dione] | 3 | 72 | 58 | 86 | 53 | 132 | – | – | – |
| Cc1cc(-c2ccc(-c3cn(C4CCC(=O)NC4=O)c(=O)o3)c(F)c2)nc(N)c1NCC1CCOCC1 (stereo not drawn) [Example 3, 3-(5-(4-(6-amino-4-methyl-5-(((tetrahydro-2H-pyran-4-yl)methyl)amino)pyridin-2-yl)-2-fluorophenyl)-2-oxooxazol-3(2H)-yl)piperidine-2,6-dione] | 4 | 84 | 67 | 193 | 67 | 181 | – | – | – |
| COC1CCN(Cc2ccc(-c3ccc(-c4cn(C5CCC(=O)NC5=O)c(=O)o4)c(F)c3)nc2N)CC1 (stereo not drawn) [Example 4, 3-(5-(4-(6-amino-5-((4-methoxypiperidin-1-yl)methyl)pyridin-2-yl)-2-fluorophenyl)-2-oxooxazol-3(2H)-yl)piperidine-2,6-dione] | 4 | 80 | 77 | 18 | 80 | 15 | – | – | – |
| Cc1cc(-c2ccc(-c3cn(C4CCC(=O)NC4=O)c(=O)o3)c(F)c2)nc(N)c1COC1CCOCC1 (stereo not drawn) [Example 5, 3-(5-(4-(6-Amino-4-methyl-5-(((tetrahydro-2H-pyran-4-yl)oxy)methyl)pyridin-2-yl)-2-fluorophenyl)-2-oxooxazol-3(2H)-yl)piperidine-2,6-dione] | 7 | 46 | 72 | 131 | 56 | 366 | 72 | – | 46 |

Further lines, results first:

| DC50 (IKZF4 Eos; CD4+CD127lowCD25+ Treg cells) [nM] | IKZF4*** Eos max % or deg. observed (IKZF4 Eos) [%] | IKZF3* Aiolos max % deg. observed (IKZF3 Aiolos) [%] | DC50 (IKZF3 Aiolos) [nM] | IKZF1* Ikaros max % deg. observed (IKZF1 Ikaros) [%] | DC50 (IKZF1 Ikaros) [nM] | IKZF3 Aiolos Maximum Observed Degradation (IKZF3 Aiolos) [%] | IKZF1 Ikaros Maximum Observed Degradation (IKZF1 Ikaros) [%] | IKZF4 Eos max % deg. observed (IKZF4 Eos; CD4+CD127lowCD25+ Treg cells, 12-13 days with compound) [%] | Structure (SMILES) |
| --- | --- | --- | --- | --- | --- | --- | --- | --- | --- |
| > 1000 | 0 | 80 | 21 | 74 | 113 | 80 | 74 | – | O=C1CCC(n2cc(-c3ccccc3)oc2=O)C(=O)N1 (stereo not drawn) [Comparative Compound A, 3-(2-oxo-5-phenyloxazol-3(2H)-yl)piperidine-2,6-dione, reference compound] |
| > 1000 | 11 | 0 | > 1000 | 17 | > 1000 | 0 | 17 | – | O=C1CCC(n2cc(-c3ccc(Br)cc3F)oc2=O)C(=O)N1 (stereo not drawn) [Comparative Compound B, 3-(5-(4-bromo-2-fluorophenyl)-2-oxooxazol-3(2H)-yl)piperidine-2,6-dione, reference compound] |
| 2 | 84 | 76 | 18 | 76 | 53 | – | – | – | CC1(C)Cc2cc(-c3ccc(-c4cn(C5CCC(=O)NC5=O)c(=O)o4)c(F)c3)nc(N)c2O1 (stereo not drawn) [Example 1, 3-(5-(4-(7-amino-2,2-dimethyl-2,3-dihydrofuro[2,3-c]pyridin-5-yl)-2-fluorophenyl)-2-oxooxazol-3(2H)-yl)piperidine-2,6-dione] |
